Results as given in patent publication US20160081309A1, “FRUCTOBACILLUS AS A PROBIOTIC FOR HONEYBEES” (Indiana University Research & Technology Corporation, priority 2014, published 2016).

Assays:
Fructobacillus sp. = test: Antibiotic sensitivity test, soft agar overlay with antibiotic discs; type: cell-based; settings: Fructobacillus soft MRS agar overlay, disc content 5-30 mcg as given per antibiotic; for Zone of Inhibition: BBL Sensi-Disc
Experimental: Evolutionary analyses were conducted in MEGA6 using the 16S rRNA gene sequences and using a Maximum Likelihood method based on the General Time Reversible Model with a gamma distribution, invariable sites and 100 bootstrap replicates (Tamura et al. (2013) Mol Biol Evol, 30:2725-2729). For antibiotic sensitivity tests, overnight cultures of Fructobacillus sp. were mixed with soft MRS agar and overlayed onto MRS plates onto which an antibiotic impregnated disc had been placed. Diameters of zones of inhibition were measured around each antibiotic disc using a ruler. Antibiotics used were BBL Sensi-Disc tetracycline 30 mcg, ampicillin with sulbactam 20 mcg, rifampin 5 mcg, ciprofloxacin 5 mcg, and vancomycin 30 mcg.
Honey bees are commonly prophylactically treated with oxytetracycline for the prevention of foulbrood diseases caused by the bacteria Melissococcus plutonius and Paenibacillus larvae. […] The bacterial strain's resistance to antibiotics was determined, as treatment might alter the abundance of Fructobacillus in the hive. Using soft agar overlays, Fructobacillus cultures were exposed to five different antibiotics (tetracycline, ampicillin (with sulbactam), rifampicin, ciprofloxacin, and vancomycin), and the resulting zones of inhibition were measured (Table 3). […] These two antibiotics are commonly used in agriculture.

Fructobacillus FJL = test: Carbon source utilization assay (Biolog MT2 plates); type: cell-based; settings: 2% carbohydrate, Biolog MT2, 30° C. aerobic; versus water-only controls, unpaired t-test p≦0.001
Experimental: The same Fructobacillus isolate as used for co-culture assays was grown for 72 hours in MRS broth at 30° C. under aerobic conditions. Cells were pelleted via centrifugation and the supernatant was removed. The pellet was resuspended in a buffer of 0.1M Tris-HCl (pH 6.5). This centrifugation and resuspension process was performed twice to ensure removal of all residual MRS. 15 μl of cell suspension was added to each well of a Biolog MT2 plate (Biolog Inc.). To this, 150 μl of 2% carbohydrate solutions were added to the wells, with each carbohydrate repeated in triplicate. Additionally, water control wells were established in triplicate, inoculated with cell suspension and filtered, autoclaved water. […] Plates were read via spectrophotometry at A590 immediately following inoculation in order to establish as baseline. Plates were incubated aerobically at 30° C., and A590 readings were taken every 24 hours. […] To assess whether a carbon source was utilized, absorbance readings from time points with peak absorbance were compared to absorbance of the initial time point. Absorbance in water control wells was subtracted from absorbance in carbohydrate containing wells. […] A carbon source was determined to have been utilized by Fructobacillus if the difference was statistically significant with a p-value of 0.001 or lower.

## O=C(O)c1cn(C2CC2)c2cc(N3CCNCC3)c(F)cc2c1=O [Ciprofloxacin]
Fructobacillus sp.
  Zone of Inhibition: 9 mm
  Interpretation (antibiotic sensitivity): Resistant

## CO[C@H]1/C=C/O[C@@]2(C)Oc3c(C)c(O)c4c(O)c(c(/C=N/N5CCN(C)CC5)c(O)c4c3C2=O)NC(=O)/C(C)=C\C=C\[C@H](C)[C@H](O)[C@@H](C)[C@@H](O)[C@@H](C)[C@H](OC(C)=O)[C@@H]1C [Rifampin]
Fructobacillus sp.
  Zone of Inhibition: 25 mm
  Interpretation (antibiotic sensitivity): Susceptible

## CN(C)[C@@H]1C(O)=C(C(N)=O)C(=O)[C@@]2(O)C(O)=C3C(=O)c4c(O)cccc4[C@@](C)(O)[C@H]3C[C@@H]12 [Tetracycline]
Fructobacillus sp.
  Zone of Inhibition: 32 mm

## CN[C@H](CC(C)C)C(=O)N[C@H]1C(=O)N[C@@H](CC(N)=O)C(=O)N[C@H]2C(=O)N[C@H]3C(=O)N[C@H](C(=O)N[C@H](C(=O)O)c4cc(O)cc(O)c4-c4cc3ccc4O)[C@H](O)c3ccc(c(Cl)c3)Oc3cc2cc(c3O[C@@H]2O[C@H](CO)[C@@H](O)[C@H](O)[C@H]2O[C@H]2C[C@](C)(N)[C@H](O)[C@H](C)O2)Oc2ccc(cc2Cl)[C@H]1O [Vancomycin]
Fructobacillus sp.
  Zone of Inhibition: 0 mm
  Interpretation (antibiotic sensitivity): Resistant

## O=C(CO)[C@@H](O)[C@H](O)[C@H](O)CO [fructose]
Fructobacillus FJL
  Utilization of carbon source by Fructobacillus: capable of utilizing
